Series [1] is described as follows: Permeability in CALU-3 cells. The series is classed as in vitro ADME. To be noted: human, CALU-3 monolayers, pH 7.4, 37° C., 10 μM compound; for Papp A→B at 90 min, 10 μM: apical-to-basal; for Papp B→A at 90 min, 10 μM: basal-to-apical. The procedure:
Permeability in CALU-3 Cells:
Permeability measurements across polarized, confluent CALU-3 cell monolayers grown on permeable filter supports are used to provide information on the potential of a compound to pass the lung epithelium. Apparent permeability coefficients (Papp) of the compounds across the CALU-3 cell monolayers are measured (pH 7.4, 37° C.) in apical-to-basal (AB) and basal-to-apical (BA) transport direction.
CALU-3 cells (1-2×10^5 cells/1 cm^2 area) are seeded on filter inserts (Costar transwell polycarbonate filters, 0.4 μm pore size) and cultured (for 10-12 days DMEM) until tight monolayers are formed. Compounds of interest are dissolved in appropriate solvent (DMSO, 10 mM stock solution). Stock solutions are diluted with HTP-4 buffer (128.13 mM NaCl, 5.36 mM KCl, 1 mM MgSO4, 1.8 mM CaCl2, 4.17 mM NaHCO3, 1.19 mM Na2HPO4×7H2O, 0.41 mM NaH2PO4×H2O, 15 mM HEPES, 20 mM glucose, 0.25% BSA, pH 7.4) to prepare the transport solutions (10 μM compound, final DMSO<=0.5%). The transport solution (TL) is applied to the apical or basolateral donor side for measuring A-B or B-A permeability (3 filter replicates), respectively. The receiver side contains the same buffer as the donor side. After 30 min of accommodation, samples are collected at the start t0=0 min and at the end of the experiment tn=90 min from the donor and at 0, 30, 60, and 90 min also from the receiver chamber. Volume removed is […] by HTP-4 buffer. The compound concentration in the samples is measured by HPLC-MS/MS or scintillation counting. The permeability coefficient (Papp) and efflux ratio are calculated according to: Papp [cm/s]=(concentration receiver [nM]*volume receiver [mL]/time interval [sec])*(1/filter area)*(1/donor concentration [nM]).

Series [2] has as its target T1, ENaC (Epithelial Sodium Channel) (Mus musculus, UniProt Q61180+Q9WU38+Q9WU39).
T1 construct: Mouse kidney M-1 cells were cultivated in DMEM containing 5% FCS and 5 μM dexamethasone; endogenous in cells; host or cells: Mouse kidney M-1 cells
T1 sequence (Q61180 1-699): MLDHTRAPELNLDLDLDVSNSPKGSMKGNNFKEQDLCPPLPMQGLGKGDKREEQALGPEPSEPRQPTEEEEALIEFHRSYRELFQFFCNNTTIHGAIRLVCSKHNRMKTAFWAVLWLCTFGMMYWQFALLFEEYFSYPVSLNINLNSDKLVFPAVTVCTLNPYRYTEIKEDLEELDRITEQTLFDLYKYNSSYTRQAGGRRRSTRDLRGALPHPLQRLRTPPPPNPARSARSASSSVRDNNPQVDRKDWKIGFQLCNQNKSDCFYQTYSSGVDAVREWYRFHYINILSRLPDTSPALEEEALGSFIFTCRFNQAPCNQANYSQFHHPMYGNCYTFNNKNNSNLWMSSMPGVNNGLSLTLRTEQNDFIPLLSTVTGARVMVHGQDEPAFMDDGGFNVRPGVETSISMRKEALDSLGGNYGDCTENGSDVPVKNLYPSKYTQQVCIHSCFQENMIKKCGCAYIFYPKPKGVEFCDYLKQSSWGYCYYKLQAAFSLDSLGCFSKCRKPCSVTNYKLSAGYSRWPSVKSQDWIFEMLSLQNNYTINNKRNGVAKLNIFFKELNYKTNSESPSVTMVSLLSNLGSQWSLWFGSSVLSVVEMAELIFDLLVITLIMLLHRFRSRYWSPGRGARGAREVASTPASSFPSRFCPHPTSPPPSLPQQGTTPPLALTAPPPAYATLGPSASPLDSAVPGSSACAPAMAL
T1 sequence (Q9WU38 1-638): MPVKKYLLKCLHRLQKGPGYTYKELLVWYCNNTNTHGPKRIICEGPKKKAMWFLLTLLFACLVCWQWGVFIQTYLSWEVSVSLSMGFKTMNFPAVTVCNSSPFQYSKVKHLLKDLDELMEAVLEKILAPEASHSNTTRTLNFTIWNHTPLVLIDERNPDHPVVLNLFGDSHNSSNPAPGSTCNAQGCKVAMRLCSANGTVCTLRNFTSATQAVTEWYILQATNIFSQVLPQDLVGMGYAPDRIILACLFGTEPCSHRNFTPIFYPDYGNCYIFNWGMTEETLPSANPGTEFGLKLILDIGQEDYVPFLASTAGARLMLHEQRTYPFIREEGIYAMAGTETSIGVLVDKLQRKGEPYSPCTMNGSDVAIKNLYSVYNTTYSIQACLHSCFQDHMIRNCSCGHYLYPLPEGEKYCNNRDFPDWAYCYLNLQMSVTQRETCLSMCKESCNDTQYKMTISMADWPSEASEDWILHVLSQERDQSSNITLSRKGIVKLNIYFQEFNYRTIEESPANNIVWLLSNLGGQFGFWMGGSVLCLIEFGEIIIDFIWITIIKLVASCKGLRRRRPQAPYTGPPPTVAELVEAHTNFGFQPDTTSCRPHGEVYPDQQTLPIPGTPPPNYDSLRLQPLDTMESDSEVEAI
T1 sequence (Q9WU39 1-655): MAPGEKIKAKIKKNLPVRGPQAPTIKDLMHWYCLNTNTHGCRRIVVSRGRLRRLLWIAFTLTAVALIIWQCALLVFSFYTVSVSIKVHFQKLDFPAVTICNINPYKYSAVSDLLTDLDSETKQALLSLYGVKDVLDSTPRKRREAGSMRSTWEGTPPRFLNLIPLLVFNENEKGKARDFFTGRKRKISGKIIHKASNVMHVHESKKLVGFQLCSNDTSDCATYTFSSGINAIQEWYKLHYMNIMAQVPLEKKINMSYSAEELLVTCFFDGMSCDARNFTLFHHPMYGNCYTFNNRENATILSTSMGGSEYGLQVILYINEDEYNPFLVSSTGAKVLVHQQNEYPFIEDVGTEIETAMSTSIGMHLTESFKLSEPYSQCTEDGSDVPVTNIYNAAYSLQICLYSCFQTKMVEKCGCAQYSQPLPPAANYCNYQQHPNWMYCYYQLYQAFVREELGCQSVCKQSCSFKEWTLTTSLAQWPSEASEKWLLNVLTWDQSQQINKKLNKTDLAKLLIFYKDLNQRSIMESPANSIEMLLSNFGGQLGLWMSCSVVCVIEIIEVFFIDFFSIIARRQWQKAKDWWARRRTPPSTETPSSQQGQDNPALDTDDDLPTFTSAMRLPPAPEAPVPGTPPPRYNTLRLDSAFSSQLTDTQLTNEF
The series can be described thus: Ussing Chamber assay (short circuit current, amiloride sensitive I_SC) in M-1 cells. Particulars: Mouse kidney M-1 cells, apical application, 37° C. It is filed as cell-based. Here is the method: The IC50 values of the example compounds given above were determined in the Ussing Chamber assay.
Ussing Chamber: Mouse kidney M-1 cells were cultivated in DMEM containing 5% FCS and 5 μM dexamethasone for 10 to 12 days on polyester transwell filters. Filters were inserted into a teflon-coated well-plate which fit into the ussing chamber system. Prior to measurement the medium of M-1 cells was replaced with Caco-2 transport buffer (Invitrogen, Germany). During measurements, the Ussing chamber temperature was kept at 37° C. Short circuit currents (I_sc) were measured in the voltage-clamp mode with the software package Lab View for data acquisition and analysis. The transepithelial electrical resistance (TEER) was determined by the application of voltage steps of ±5 mV every 5 sec. Compounds were administered at a final concentration of 3 μM or at increasing concentrations (1-3-10 μM) to the apical solution. At the end of each experiment the amiloride sensitive I_SC was measured by adding 3 μM amiloride to the apical compartment. Results are expressed as inhibition in percent of the amiloride effect or as IC50.

This is an account of results in patent US10155749B2, “Substituted benzimidazolium compounds useful in the treatment of respiratory diseases” (Boehringer Ingelheim International GmbH, priority 2015, dated 2018).

In series [1], `CC[n+]1c(CNC(=O)c2nc(Cl)c(N)nc2N)n(C[C@H](C)O)c2cc(N(C)C)c(C(=O)N3CCN(C(=O)Cc4ccccn4)CC3)cc21.O=C([O-])C(F)(F)F` [Example 4.14] gave an apical-to-basolateral permeability (Papp A→B) at 90 min, 10 μM of 0.3 ×10⁻⁶ cm/s and an apparent permeability from basolateral to apical (Papp B→A) at 90 min, 10 μM of 0.2 ×10⁻⁶ cm/s. Also, the IC50 in series [2] turned out to be 19 nM.
On the same counts, the results for `CCCCCCN1CCC(NC(=O)c2cc3c(cc2F)n(CC)c(CNC(=O)c2nc(Cl)c(N)nc2N)[n+]3CC)CC1.O=CO.O=C[O-]` [Example 10.01] are 0.3 ×10⁻⁶ cm/s, 0.3 ×10⁻⁶ cm/s and 1 nM.
For `CCn1c(CNC(=O)c2nc(Cl)c(N)nc2N)[n+](CC)c2ccc(OCC(=O)N(Cc3nc(C)ccc3O)C[C@H](C)O)cc21.O=C([O-])C(F)(F)F` [Example 3.05] the same measures were 0.2 ×10⁻⁶ cm/s, 0.3 ×10⁻⁶ cm/s and 2 nM.
On the same counts, the results for `CC[n+]1c(CNC(=O)c2nc(Cl)c(N)nc2N)n(CCO)c2cc(OCC(=O)NCCC[n+]3cccc([O-])c3)ccc21.O=C([O-])C(F)(F)F` [Example 1.01] are 0.04 ×10⁻⁶ cm/s, 0.06 ×10⁻⁶ cm/s and 2 nM.
In series [1], `CC[n+]1c(CNC(=O)c2nc(Cl)c(N)nc2N)n(C[C@H](C)O)c2cc(OCCN(CP(C)(C)=O)C(=O)CC(C)C)ccc21.O=C([O-])C(F)(F)F` [Example 1.05] gave a Papp A→B at 90 min, 10 μM of 0.1 ×10⁻⁶ cm/s and a Papp B→A at 90 min, 10 μM of 0.01 ×10⁻⁶ cm/s. Moreover, in series [2], inhibition was half-maximal at 1 nM (IC50).
`CCNC(=O)c1cc2c(cc1OCC(=O)NC1CCN(C(=O)OC(C)(C)C)CC1)n(CC)c(CNC(=O)c1nc(Cl)c(N)nc1N)[n+]2CC` [Example 3.19] displayed an IC50 in series [2] of 9 nM.
Still for that read-out and setting: next, `CCOc1cc2c(cc1C(=O)N1CCNCC1)[n+](CC)c(CNC(=O)c1nc(Cl)c(N)nc1N)n2CC` [Example 8.02]: 1 nM; `CCn1c(CNC(=O)c2nc(Cl)c(N)nc2N)[n+](CC)c2ccc(OCCNC(=O)CN3CCC(NC(=O)OC(C)(C)C)CC3)cc21` [Example 4.10]: 1 nM; `CC[n+]1c(CNC(=O)c2nc(Cl)c(N)nc2N)n(CC2CCCCC2)c2cc(OCC[n+]3cccc(O)c3)ccc21` [Example 1.03]: 5 nM.
In series [2], `CCn1c(CNC(=O)c2nc(Cl)c(N)nc2N)[n+](CC)c2ccc(OCC(=O)N(C)Cc3nc(C)ccc3[O-])cc21` [Example 3.02] registered an IC50 of 0.4 nM.
The same measure, in the same setting: to `CCn1c(CNC(=O)c2nc(Cl)c(N)nc2N)[n+](CC)c2ccc(OCC(=O)NC3CCNCC3)cc21` [Example 3.24] belongs 0.1 nM.
The same measure, in the same setting: next, `CCn1c(CNC(=O)c2nc(Cl)c(N)nc2N)[n+](CC)c2ccc(OCC(=O)Nc3cncc(OCc4ccccc4)c3)cc21` [Example 3.13]: 2 nM.
For the compound `CCN1CCC(NC(=O)COc2ccc3c(c2)n(CC)c(CNC(=O)c2nc(Cl)c(N)nc2N)[n+]3CC)CC1` [Example 3.09], the IC50 in series [2] came to 0.2 nM.
The same measure, in the same setting: to `CCn1c(CNC(=O)c2nc(Cl)c(N)nc2N)[n+](CC)c2cc(C(=O)NC3CCNCC3)c(F)cc21` [Example 6.06] belongs 0.4 nM.
`CCn1c(CNC(=O)c2nc(Cl)c(N)nc2N)[n+](CC)c2ccc(OCCNC(=O)C3CCCN3)cc21` (stereo not shown) [Example 6.04] had an IC50 in series [2] of 0.4 nM.
As for `CC[n+]1c(CNC(=O)c2nc(Cl)c(N)nc2N)n(C[C@H](C)O)c2cc(N(C)C)c(C(=O)N3CCN(C(=O)c4cncc(O)c4)CC3)cc21` [Example 4.17], it took 23 nM to reach half-maximal inhibition in series [2] (IC50).
On the same count and under the same terms, next, `CCNC(=O)CN1CCC(NC(=O)c2cc3c(cc2F)[n+](CC)c(CNC(=O)c2nc(Cl)c(N)nc2N)n3CC)CC1` [Example 3.10]: 1 nM; `CCn1c(CNC(=O)c2nc(Cl)c(N)nc2N)[n+](CC)c2cc(C(=O)N3CCN(C(=O)N4CCOCC4)CC3)c(F)cc21` [Example 3.15]: 1 nM.
For the compound `CCCCCCN(C)C(=O)c1cc2c(cc1N1C[C@H](O)[C@@H](O)C1)n(CCO)c(CNC(=O)c1nc(Cl)c(N)nc1N)[n+]2CC` [Example 1.16], the IC50 in series [2] was 11 nM.
The same measure, in the same setting: next, `CCn1c(CNC(=O)c2nc(Cl)c(N)nc2N)[n+](CC)c2ccc(C(=O)NCCNC(C)=O)cc21` [Example 3.08]: 0.4 nM.
Same read-out and setting: next, `CC[n+]1c(CNC(=O)c2nc(Cl)c(N)nc2N)n(C[C@H](C)O)c2cc(N(C)C)c(C(=O)N3CCNCC3)cc21` [Example 8.01]: 6 nM; `CCOc1cc2c(cc1C(=O)N1CCN(C(=O)c3cncc(O)c3)CC1)[n+](CC)c(CNC(=O)c1nc(Cl)c(N)nc1N)n2CC` [Example 4.16]: 2 nM; `CCCn1c(CNC(=O)c2nc(Cl)c(N)nc2N)[n+](C)c2ccc(OCC(=O)N(C)Cc3nc(C)ccc3O)cc21` [Example 1.07]: 3 nM.
In series [2], `CCn1c(CNC(=O)c2nc(Cl)c(N)nc2N)[n+](CC)c2ccc(C(=O)NCCNS(C)(=O)=O)cc21` [Example 3.14] had a concentration for half-maximal inhibition (IC50) of 0.4 nM.
